According to PubChem BioAssay AID1963975 (Molecular Pharmacology Branch, DTP, NCI, 2024):

Test system: 624824-186-R-J2-PDC multicell spheroids, viability
Assay: Anticancer human tumor 624824-186-R-J2-PDC patient-derived colon adenocarcinoma cell line growth inhibition [PI3K]
Conditions: for IC50: curve of first compound; for viability, T/C: stronger effect = lower value
Procedure, shortened: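 Tumor cells grown as multi-cell spheroids with HUVEC endothelial cells and MSC fibroblast-like stroma were treated with targeted agents combined with inavolisib, alpelisib, duvelisib or copanlisib. Doses fell in half-log steps from near clinical Cmax, else from 10 microM. Viability was measured.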

[1] = second compound 0.00316 µM, first compound 0.0316 µM
[2] = second compound 0.00316 µM, first compound 0.1 µM
[3] = second compound 0.01 µM, first compound 0.0316 µM
[4] = second compound 0.01 µM, first compound 0.1 µM
[5] = second compound 0.0316 µM, first compound 0.0316 µM
[6] = second compound 0.0316 µM, first compound 0.1 µM
[7] = second compound 0.1 µM, first compound 0.0316 µM
[8] = second compound 0.1 µM, first compound 0.1 µM
[9] = second compound 0.316 µM, first compound 0.0316 µM
[10] = second compound 0.316 µM, first compound 0.1 µM
[11] = second compound 1 µM, first compound 0.0316 µM
[12] = second compound 1 µM, first compound 0.1 µM
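Further: spheroids exposed to agents for 7 days before viability read.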
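Wherever viability, T/C is given: 100% = DMSO vehicle treated spheroids.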

For `CC(=O)c1c(C)c2cnc(Nc3ccc(N4CCNCC4)cn3)nc2n(C2CCCC2)c1=O` + COc1c(OCCCN2CCOCC2)ccc2c3n(c(=NC(=O)c4cnc(N)nc4)nc12)CCN3, the IC50 (second compound 0.00316 µM) was > 100 nM, the IC50 (second compound 0.01 µM) was > 100 nM and the IC50 (second compound 0.0316 µM) was > 100 nM. For the same compound, the IC50 (second compound 0.1 µM) was > 100 nM, the IC50 (second compound 0.316 µM) was > 100 nM and the IC50 (second compound 1 µM) was > 100 nM. It also gave a viability, T/C (second compound 0.00316 µM, first compound 0.000316 µM) of 95.5%, a viability, T/C (second compound 0.00316 µM, first compound 0.001 µM) of 94.7% and a viability, T/C (second compound 0.00316 µM, first compound 0.00316 µM) of 90.6%. For the same compound, the viability, T/C (second compound 0.00316 µM, first compound 0.01 µM) was 98.7%, the viability, T/C [1] was 105% and the viability, T/C [2] was 84%. The viability, T/C (second compound 0.01 µM, first compound 0.000316 µM) was 104%, the viability, T/C (second compound 0.01 µM, first compound 0.001 µM) was 90% and the viability, T/C (second compound 0.01 µM, first compound 0.00316 µM) was 86.7%. It also gave a viability, T/C (second compound 0.01 µM, first compound 0.01 µM) of 94.3%, a viability, T/C [3] of 97.6% and a viability, T/C [4] of 96.5%. It also gave a viability, T/C (second compound 0.0316 µM, first compound 0.000316 µM) of 82.7%, a viability, T/C (second compound 0.0316 µM, first compound 0.001 µM) of 94.4% and a viability, T/C (second compound 0.0316 µM, first compound 0.00316 µM) of 91.4%. For the same compound, the viability, T/C (second compound 0.0316 µM, first compound 0.01 µM) was 86.7%, the viability, T/C [5] was 89% and the viability, T/C [6] was 69.2%. The viability, T/C (second compound 0.1 µM, first compound 0.000316 µM) was 65.9%, the viability, T/C (second compound 0.1 µM, first compound 0.001 µM) was 77.2% and the viability, T/C (second compound 0.1 µM, first compound 0.00316 µM) was 78.2%. It also gave a viability, T/C (second compound 0.1 µM, first compound 0.01 µM) of 70.8%, a viability, T/C [7] of 70% and a viability, T/C [8] of 55.6%. It also gave a viability, T/C (second compound 0.316 µM, first compound 0.000316 µM) of 61.4%, a viability, T/C (second compound 0.316 µM, first compound 0.001 µM) of 68.6% and a viability, T/C (second compound 0.316 µM, first compound 0.00316 µM) of 61.4%. The viability, T/C (second compound 0.316 µM, first compound 0.01 µM) was 57.9%, the viability, T/C [9] was 66.9% and the viability, T/C [10] was 53.4%. It also gave a viability, T/C (second compound 1 µM, first compound 0.000316 µM) of 59%, a viability, T/C (second compound 1 µM, first compound 0.001 µM) of 58% and a viability, T/C (second compound 1 µM, first compound 0.00316 µM) of 58.7%. It also gave a viability, T/C (second compound 1 µM, first compound 0.01 µM) of 58.4%, a viability, T/C [11] of 62.9% and a viability, T/C [12] of 55.7%.

For `CNC(=O)c1ccc(N2C(=S)N(c3ccc(C#N)c(C(F)(F)F)c3)C(=O)C2(C)C)cc1F` + COc1c(OCCCN2CCOCC2)ccc2c3n(c(=NC(=O)c4cnc(N)nc4)nc12)CCN3, the IC50 (second compound 0.00316 µM) was > 10000 nM, the IC50 (second compound 0.01 µM) was > 10000 nM and the IC50 (second compound 0.0316 µM) was > 10000 nM. The IC50 (second compound 0.1 µM) was > 10000 nM, the IC50 (second compound 0.316 µM) was > 10000 nM and the IC50 (second compound 1 µM) was > 10000 nM. The viability, T/C [1] was 77.2%, the viability, T/C [2] was 74% and the viability, T/C (second compound 0.00316 µM, first compound 0.316 µM) was 76.4%. It also gave a viability, T/C (second compound 0.00316 µM, first compound 1 µM) of 91.7%, a viability, T/C (second compound 0.00316 µM, first compound 3.16 µM) of 89.6% and a viability, T/C (second compound 0.00316 µM, first compound 10 µM) of 110%. For the same compound, the viability, T/C [3] was 110%, the viability, T/C [4] was 103% and the viability, T/C (second compound 0.01 µM, first compound 0.316 µM) was 99.3%. The viability, T/C (second compound 0.01 µM, first compound 1 µM) was 94%, the viability, T/C (second compound 0.01 µM, first compound 3.16 µM) was 96.9% and the viability, T/C (second compound 0.01 µM, first compound 10 µM) was 99%. The viability, T/C [5] was 90.4%, the viability, T/C [6] was 81.7% and the viability, T/C (second compound 0.0316 µM, first compound 0.316 µM) was 96.6%. For the same compound, the viability, T/C (second compound 0.0316 µM, first compound 1 µM) was 96.5%, the viability, T/C (second compound 0.0316 µM, first compound 3.16 µM) was 78.4% and the viability, T/C (second compound 0.0316 µM, first compound 10 µM) was 89.7%. The viability, T/C [7] was 95.6%, the viability, T/C [8] was 71.8% and the viability, T/C (second compound 0.1 µM, first compound 0.316 µM) was 73.4%. The viability, T/C (second compound 0.1 µM, first compound 1 µM) was 84%, the viability, T/C (second compound 0.1 µM, first compound 3.16 µM) was 79.9% and the viability, T/C (second compound 0.1 µM, first compound 10 µM) was 70.9%. It also gave a viability, T/C [9] of 62.2%, a viability, T/C [10] of 66.3% and a viability, T/C (second compound 0.316 µM, first compound 0.316 µM) of 65%. For the same compound, the viability, T/C (second compound 0.316 µM, first compound 1 µM) was 61.5%, the viability, T/C (second compound 0.316 µM, first compound 3.16 µM) was 65.4% and the viability, T/C (second compound 0.316 µM, first compound 10 µM) was 65.3%. It also gave a viability, T/C [11] of 65%, a viability, T/C [12] of 61.6% and a viability, T/C (second compound 1 µM, first compound 0.316 µM) of 57.2%. The viability, T/C (second compound 1 µM, first compound 1 µM) was 62.5%, the viability, T/C (second compound 1 µM, first compound 3.16 µM) was 63% and the viability, T/C (second compound 1 µM, first compound 10 µM) was 57.3%.

For `Cn1cnc2c(F)c(Nc3ccc(Br)cc3Cl)c(C(=O)NOCCO)cc21` + COc1c(OCCCN2CCOCC2)ccc2c3n(c(=NC(=O)c4cnc(N)nc4)nc12)CCN3, the IC50 (second compound 0.00316 µM) was > 3000 nM, the IC50 (second compound 0.01 µM) was > 3000 nM and the IC50 (second compound 0.0316 µM) was 243 nM. The IC50 (second compound 0.1 µM) was 38 nM, the IC50 (second compound 0.316 µM) was < 9.49 nM and the IC50 (second compound 1 µM) was < 9.49 nM. For the same compound, the viability, T/C (second compound 0.00316 µM, first compound 0.00949 µM) was 86%, the viability, T/C (second compound 0.00316 µM, first compound 0.03 µM) was 74.6% and the viability, T/C (second compound 0.00316 µM, first compound 0.0949 µM) was 64.4%. For the same compound, the viability, T/C (second compound 0.00316 µM, first compound 0.3 µM) was 68.7%, the viability, T/C (second compound 0.00316 µM, first compound 0.949 µM) was 72.8% and the viability, T/C (second compound 0.00316 µM, first compound 3 µM) was 63.1%. The viability, T/C (second compound 0.01 µM, first compound 0.00949 µM) was 79.3%, the viability, T/C (second compound 0.01 µM, first compound 0.03 µM) was 75.7% and the viability, T/C (second compound 0.01 µM, first compound 0.0949 µM) was 66.5%. For the same compound, the viability, T/C (second compound 0.01 µM, first compound 0.3 µM) was 62.6%, the viability, T/C (second compound 0.01 µM, first compound 0.949 µM) was 62.8% and the viability, T/C (second compound 0.01 µM, first compound 3 µM) was 51.4%. It also gave a viability, T/C (second compound 0.0316 µM, first compound 0.00949 µM) of 70.8%, a viability, T/C (second compound 0.0316 µM, first compound 0.03 µM) of 59.2% and a viability, T/C (second compound 0.0316 µM, first compound 0.0949 µM) of 53%. For the same compound, the viability, T/C (second compound 0.0316 µM, first compound 0.3 µM) was 51.5%, the viability, T/C (second compound 0.0316 µM, first compound 0.949 µM) was 42.4% and the viability, T/C (second compound 0.0316 µM, first compound 3 µM) was 28.5%. It also gave a viability, T/C (second compound 0.1 µM, first compound 0.00949 µM) of 60%, a viability, T/C (second compound 0.1 µM, first compound 0.03 µM) of 54.6% and a viability, T/C (second compound 0.1 µM, first compound 0.0949 µM) of 36%. It also gave a viability, T/C (second compound 0.1 µM, first compound 0.3 µM) of 37.4%, a viability, T/C (second compound 0.1 µM, first compound 0.949 µM) of 31.4% and a viability, T/C (second compound 0.1 µM, first compound 3 µM) of 15.3%. For the same compound, the viability, T/C (second compound 0.316 µM, first compound 0.00949 µM) was 50.7%, the viability, T/C (second compound 0.316 µM, first compound 0.03 µM) was 38.9% and the viability, T/C (second compound 0.316 µM, first compound 0.0949 µM) was 39.9%. The viability, T/C (second compound 0.316 µM, first compound 0.3 µM) was 28.3%, the viability, T/C (second compound 0.316 µM, first compound 0.949 µM) was 18.9% and the viability, T/C (second compound 0.316 µM, first compound 3 µM) was 2.2%. The viability, T/C (second compound 1 µM, first compound 0.00949 µM) was 49.1%, the viability, T/C (second compound 1 µM, first compound 0.03 µM) was 39.7% and the viability, T/C (second compound 1 µM, first compound 0.0949 µM) was 33.5%. The viability, T/C (second compound 1 µM, first compound 0.3 µM) was 26.4%, the viability, T/C (second compound 1 µM, first compound 0.949 µM) was 11.1% and the viability, T/C (second compound 1 µM, first compound 3 µM) was 1.13%.
